From PubChem BioAssay (NCI)
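Results reflect a 48-hour exposure of cells in 96-well plates to compound at five concentrations. GI50 = concentration required for 50% inhibition of growth. At the TGI there is no net growth.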

What was measured:
Test in all cases: NCI tumour cell line growth inhibition, 48 h
786-0 renal = system: 786-0 renal
A498 renal = system: A498 renal
A549 NSCLC = system: A549 NSCLC
ACHN renal = system: ACHN renal
BT-549 breast = system: BT-549 breast
CAKI-1 renal = system: CAKI-1 renal
CCRF-CEM leukemia = system: CCRF-CEM leukemia
COLO 205 colon = system: COLO 205 colon
DU-145 prostate = system: DU-145 prostate
EKVX NSCLC = system: EKVX NSCLC
HCC-2998 colon = system: HCC-2998 colon
HCT-116 colon = system: HCT-116 colon
HCT-15 colon = system: HCT-15 colon
HL-60(TB) leukemia = system: HL-60(TB) leukemia
HOP-62 NSCLC = system: HOP-62 NSCLC
HS 578T breast = system: HS 578T breast
HT29 colon = system: HT29 colon
IGROV1 ovarian = system: IGROV1 ovarian
K-562 leukemia = system: K-562 leukemia
KM12 colon = system: KM12 colon
LOX IMVI melanoma = system: LOX IMVI melanoma
M14 melanoma = system: M14 melanoma
MALME-3M melanoma = system: MALME-3M melanoma
MCF7 breast = system: MCF7 breast
MDA-MB-231 breast = system: MDA-MB-231 breast
MDA-MB-435 = system: MDA-MB-435
NCI-H226 lung = system: NCI-H226 lung
NCI-H23 lung = system: NCI-H23 lung
NCI-H460 lung = system: NCI-H460 lung
NCI-H522 lung = system: NCI-H522 lung
NCI/ADR-RES ovarian = system: NCI/ADR-RES ovarian
OVCAR-3 ovarian = system: OVCAR-3 ovarian
OVCAR-4 ovarian = system: OVCAR-4 ovarian
OVCAR-5 ovarian = system: OVCAR-5 ovarian
OVCAR-8 ovarian = system: OVCAR-8 ovarian
RXF 393 renal = system: RXF 393 renal
SF-268 CNS = system: SF-268 CNS
SF-295 CNS = system: SF-295 CNS
SF-539 CNS = system: SF-539 CNS
SK-MEL-2 melanoma = system: SK-MEL-2 melanoma
SK-MEL-28 melanoma = system: SK-MEL-28 melanoma
SK-MEL-5 melanoma = system: SK-MEL-5 melanoma
SK-OV-3 ovarian = system: SK-OV-3 ovarian
SN12C renal = system: SN12C renal
SNB-19 CNS = system: SNB-19 CNS
SNB-75 CNS = system: SNB-75 CNS
SW-620 colon = system: SW-620 colon
T-47D breast = system: T-47D breast
TK-10 renal = system: TK-10 renal
U251 CNS = system: U251 CNS
UACC-257 melanoma = system: UACC-257 melanoma
UACC-62 melanoma = system: UACC-62 melanoma
UO-31 renal = system: UO-31 renal

For `CO[C@H]1/C=C/O[C@@]2(C)Oc3c(C)c(O)c4c(O)c(c(/C=N/N5C(C)CN(Cc6ccc(C#N)cc6)CC5C)c(O)c4c3C2=O)NC(=O)/C(C)=C\C=C\[C@H](C)[C@H](O)[C@@H](C)[C@@H](O)[C@@H](C)[C@H](OC(C)=O)[C@@H]1C` (stereo partly specified), the GI50 (786-0 renal) was 8.79 µM, the TGI (786-0 renal) was 16.8 µM and the GI50 (A498 renal) was 7.06 µM. For the same compound, the TGI (A498 renal) was 14 µM, the GI50 (A549 NSCLC) was 6.81 µM and the TGI (A549 NSCLC) was 17.1 µM. It also gave a GI50 (ACHN renal) of 7.89 µM, a TGI (ACHN renal) of 16.2 µM and a GI50 (BT-549 breast) of 8.85 µM. The TGI (BT-549 breast) was 23.5 µM, the GI50 (CAKI-1 renal) was 7.65 µM and the TGI (CAKI-1 renal) was 17.8 µM. The GI50 (CCRF-CEM leukemia) was 2.12 µM, the TGI (CCRF-CEM leukemia) was 12.3 µM and the GI50 (COLO 205 colon) was 6.82 µM. The TGI (COLO 205 colon) was 16.4 µM, the GI50 (DU-145 prostate) was 8.16 µM and the TGI (DU-145 prostate) was 15.3 µM. For the same compound, the GI50 (EKVX NSCLC) was 4.26 µM, the TGI (EKVX NSCLC) was 39.4 µM and the GI50 (HCC-2998 colon) was 7.87 µM. It also gave a TGI (HCC-2998 colon) of 17.6 µM, a GI50 (HCT-116 colon) of 5.41 µM and a TGI (HCT-116 colon) of 12.7 µM. The GI50 (HCT-15 colon) was 6.01 µM, the TGI (HCT-15 colon) was 14 µM and the GI50 (HL-60(TB) leukemia) was 7.19 µM. For the same compound, the TGI (HL-60(TB) leukemia) was 18.6 µM, the GI50 (HOP-62 NSCLC) was 9.76 µM and the TGI (HOP-62 NSCLC) was 20.6 µM. It also gave a GI50 (HS 578T breast) of 8.83 µM, a TGI (HS 578T breast) of 20.3 µM and a GI50 (HT29 colon) of 6.87 µM. For the same compound, the TGI (HT29 colon) was 14.4 µM, the GI50 (IGROV1 ovarian) was 7.61 µM and the TGI (IGROV1 ovarian) was 16.4 µM. It also gave a GI50 (K-562 leukemia) of 6.71 µM, a TGI (K-562 leukemia) of 25.3 µM and a GI50 (KM12 colon) of 5.89 µM. For the same compound, the TGI (KM12 colon) was 12.7 µM, the GI50 (LOX IMVI melanoma) was 6.84 µM and the TGI (LOX IMVI melanoma) was 13.4 µM. The GI50 (M14 melanoma) was 7.6 µM, the TGI (M14 melanoma) was 16.2 µM and the GI50 (MALME-3M melanoma) was 8.56 µM. The TGI (MALME-3M melanoma) was 20.5 µM, the GI50 (MCF7 breast) was 6.37 µM and the TGI (MCF7 breast) was 24.3 µM. The GI50 (MDA-MB-231 breast) was 7.49 µM, the TGI (MDA-MB-231 breast) was 14.9 µM and the GI50 (MDA-MB-435) was 8.58 µM. It also gave a TGI (MDA-MB-435) of 23.5 µM, a GI50 (NCI-H226 lung) of 6.06 µM and a TGI (NCI-H226 lung) of 12.9 µM. For the same compound, the GI50 (NCI-H23 lung) was 9.67 µM, the TGI (NCI-H23 lung) was 30.7 µM and the GI50 (NCI-H460 lung) was 5.76 µM. It also gave a TGI (NCI-H460 lung) of 14.1 µM, a GI50 (NCI-H522 lung) of 6.22 µM and a TGI (NCI-H522 lung) of 22 µM. It also gave a GI50 (NCI/ADR-RES ovarian) of 11.7 µM, a TGI (NCI/ADR-RES ovarian) of 46 µM and a GI50 (OVCAR-3 ovarian) of 6.99 µM. The TGI (OVCAR-3 ovarian) was 13.5 µM, the GI50 (OVCAR-4 ovarian) was 7.49 µM and the TGI (OVCAR-4 ovarian) was 26.4 µM. For the same compound, the GI50 (OVCAR-5 ovarian) was 8.88 µM, the TGI (OVCAR-5 ovarian) was 18.1 µM and the GI50 (OVCAR-8 ovarian) was 10.4 µM. It also gave a TGI (OVCAR-8 ovarian) of 38.9 µM, a GI50 (RXF 393 renal) of 8.88 µM and a TGI (RXF 393 renal) of 19.4 µM. The GI50 (SF-268 CNS) was 9.58 µM, the TGI (SF-268 CNS) was 24.1 µM and the GI50 (SF-295 CNS) was 2.88 µM. For the same compound, the TGI (SF-295 CNS) was 12.2 µM, the GI50 (SF-539 CNS) was 6.22 µM and the TGI (SF-539 CNS) was 13 µM. For the same compound, the GI50 (SK-MEL-2 melanoma) was 7.92 µM, the TGI (SK-MEL-2 melanoma) was 15.9 µM and the GI50 (SK-MEL-28 melanoma) was 8.45 µM. It also gave a TGI (SK-MEL-28 melanoma) of 16.4 µM, a GI50 (SK-MEL-5 melanoma) of 5.91 µM and a TGI (SK-MEL-5 melanoma) of 12.3 µM. It also gave a GI50 (SK-OV-3 ovarian) of 9.55 µM, a TGI (SK-OV-3 ovarian) of 23.4 µM and a GI50 (SN12C renal) of 6.73 µM. For the same compound, the TGI (SN12C renal) was 13.6 µM, the GI50 (SNB-19 CNS) was 7.55 µM and the TGI (SNB-19 CNS) was 18.1 µM. For the same compound, the GI50 (SNB-75 CNS) was 7.25 µM, the TGI (SNB-75 CNS) was 18.5 µM and the GI50 (SW-620 colon) was 8.15 µM. The TGI (SW-620 colon) was 17.5 µM, the GI50 (T-47D breast) was 6.71 µM and the TGI (T-47D breast) was 26.2 µM. The GI50 (TK-10 renal) was 7.92 µM, the TGI (TK-10 renal) was 18.8 µM and the GI50 (U251 CNS) was 6.04 µM. It also gave a TGI (U251 CNS) of 12.2 µM, a GI50 (UACC-257 melanoma) of 6.35 µM and a TGI (UACC-257 melanoma) of 15.8 µM. For the same compound, the GI50 (UACC-62 melanoma) was 3.88 µM, the TGI (UACC-62 melanoma) was 10.4 µM and the GI50 (UO-31 renal) was 3.64 µM. For the same compound, the TGI (UO-31 renal) was 10.5 µM.
